What was measured:
[1] = system: IMQ-induced psoriasis in BALB/c mice; experiment: IMQ-induced psoriasis model in BALB/c mice, topical creams, PASI score; format: in vivo
Procedure: The animal experiment is conducted in accordance with the Guidelines for the Institutional Animal Care and Use Committee. Both male and female BALB/c mice from Rodenta Bioserve, India, at 7-8 weeks of age and 20-25 gram of body weight are housed in a laboratory environment with constant temperature (24.0±1.0° C.) and relative humidity (45.0-55.0%) on a 12 h light/dark cycles. These animals are provided free access to unlimited amounts of food and water during the entire experiment. The animals are divided into 12 groups of 8 mice each and shaved on the back on day 0 for an area of 2×2 cm . Human-like psoriasis in mice is induced by topical application of 5% Imiquimod (IMQ) procured from AK Scientific, USA, and formulated in the base cream at desired percentages in-house, in shaved area and right ear (0.5×0.5 cm). […] Vehicle, clobetasol propionate (CP, Sigma. 0.05% w/w; positive control), test creams, and CBD (Ilesol Pharmaceuticals), respectively, is applied topically on both the shaved back (80 mg cream) and the right ear (20 mg cream) of mice, once daily from day 10 to day 16. The study ends at day 17. At stated time points the severity of psoriasis is evaluated using the PASI score (Psoriasis Area Severity Index: sum of erythema, scaling and thickening, scored independently from 0 to 4 for each mouse; max PASI score=12). Tissue and blood samples are collected for histopathology, biochemistry and immunoassay from each animal at various points.

[2] = target: T1, human PPARα (NR1C1) (Homo sapiens, UniProt Q07869); experiment: Cell-based human PPARα transactivation (nuclear receptor reporter) assay; settings: for PPARα transactivation: concentration at which (or starting at which) active: luciferase reporter cells, 24 h treatment, FIG. 1; for activating PPARα: at 10 μM
T1 sequence (Q07869 1-468): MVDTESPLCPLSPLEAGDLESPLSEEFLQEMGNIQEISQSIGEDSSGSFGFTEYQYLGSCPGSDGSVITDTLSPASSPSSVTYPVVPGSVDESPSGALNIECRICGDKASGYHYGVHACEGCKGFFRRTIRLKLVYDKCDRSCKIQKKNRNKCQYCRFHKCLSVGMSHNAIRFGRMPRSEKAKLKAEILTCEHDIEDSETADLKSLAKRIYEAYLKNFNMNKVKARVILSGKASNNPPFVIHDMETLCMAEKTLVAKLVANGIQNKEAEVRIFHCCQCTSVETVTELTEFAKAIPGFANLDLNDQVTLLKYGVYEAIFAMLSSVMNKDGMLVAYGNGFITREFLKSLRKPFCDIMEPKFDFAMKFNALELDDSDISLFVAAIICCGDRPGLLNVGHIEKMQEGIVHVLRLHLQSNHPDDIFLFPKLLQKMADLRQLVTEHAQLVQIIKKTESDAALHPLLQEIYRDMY
Procedure: (§1) The assay was performed using cell-based human PPAR nuclear receptor reporter assay kits (NR1C1 for PPARα; NR1C2 for PPARδ/β, and NR1C3 for PPARγ, Indigo Biosciences) by following the manufacturer's instruction. In brief, PPAR reporter cells were added to CRM medium (Indigo Biosciences), seeded into wells of a 96-well culture plate and incubated for 5 hours in a cell culture incubator at 37° C. with 5% CO2. The medium was then removed, and the cells were treated with test compounds at different concentrations in CSM medium (Indigo Biosciences) for 24 h inside the incubator. […] DMSO (Sigma) at 0.1% (v/v) was used as negative baseline control (C). Each treatment was tested in duplicate wells. At the end point of the experiments, the treatment medium was discarded and Luciferase Detection Reagent (Indigo Biosciences) was added. Following a 10-minute rest period, the intensity of light emission (in units of “Relative Light Units; RLU”) from each assay well was quantified using a plate-reading luminometer (Synergy H1 plate reader, BioTek). In addition, live cell multiplex assay (Indigo Biosciences) was combined with the activation assays to detect potential cytotoxic effect, if any, of the test chemicals to normalize the signals as per manufacturer's instruction.

[3] = target: T2, human PPARγ (NR1C3) (Homo sapiens, UniProt P37231); experiment: Cell-based human PPARγ transactivation (nuclear receptor reporter) assay; settings: for activating PPARγ: at 1 μM
T2 sequence (P37231 1-505): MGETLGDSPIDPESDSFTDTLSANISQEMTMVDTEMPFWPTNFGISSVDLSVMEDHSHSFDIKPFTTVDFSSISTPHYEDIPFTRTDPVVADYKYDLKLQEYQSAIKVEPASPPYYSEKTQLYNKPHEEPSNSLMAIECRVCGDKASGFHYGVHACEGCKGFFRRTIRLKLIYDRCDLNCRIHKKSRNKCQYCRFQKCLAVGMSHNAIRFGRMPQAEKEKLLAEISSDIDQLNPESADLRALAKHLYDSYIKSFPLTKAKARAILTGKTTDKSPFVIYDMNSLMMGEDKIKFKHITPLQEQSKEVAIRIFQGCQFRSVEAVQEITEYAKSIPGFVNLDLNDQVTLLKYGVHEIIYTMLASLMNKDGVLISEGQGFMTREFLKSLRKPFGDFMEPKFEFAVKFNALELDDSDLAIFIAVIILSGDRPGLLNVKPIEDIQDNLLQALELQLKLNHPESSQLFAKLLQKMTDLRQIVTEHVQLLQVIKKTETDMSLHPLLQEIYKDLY
Procedure: as §1

[4] = system: IMQ-stimulated HaCaT cells; experiment: Anti-inflammatory effect, IMQ-stimulated HaCaT cell model (IL-6, IL-8 ELISA); format: cell-based, human; settings: IMQ 50 μM, 24 h, vs control
Procedure: (§2) Three in vitro models based on HaCaT cell culture were tested. HaCaT cells were maintained as described above in DMEM high glucose (4.5g/L) medium supplemented with 10% FBS and 1% (v/v) penicillin/streptomycin solution (Invitrogen, Thermo Fisher) and kept in an incubator at 37° C. with 5% CO2. For experiments, the cells were seeded at 5×10^4 cells/well in 1 mL of medium to a 24-well culture plate (Nunc, Thermo Fisher) and incubated overnight.
(§3) (1) For the imiquimod (IMQ)-stimulated HaCaT model, IMQ (Alfa Aesar) at 50 μM final concentration was used in the experiments; (2) for TNFα/IL-17A-stimulated-HaCaT model, 2 ng/mL of each cytokine (R&D Systems) was used; and (3) for the lipopolysaccharide (LPS, Sigma) simulated HaCaT cell model, 20 μg/mL LPS was used. For drug chemical treatment the old medium in the culture plates described above was discarded and the corresponding stimulant (IMQ, TNFα/IL-17A, or LPS) with or without test chemicals in 0.5 mL fresh medium was added to each cell well. There were duplicate wells for each treatment. The plate was incubated for another 24 h and the supernatant was collected for cytokine analysis, namely IL-6 and IL-8, using the corresponding ELISA kits (Thermo Fisher).

[5] = system: LPS-stimulated HaCaT cells; experiment: Anti-inflammatory effect, LPS-stimulated HaCaT cell model (IL-6, IL-8 ELISA); format: cell-based, human; settings: LPS 20 μg/mL, 24 h
Procedure: as §2
as §3, with “Fisher). The experiments were repeated independently to confirm the observation.” for “Fisher).”

PPARα transactivation: concentration at which (or starting at which) active [2] [µM] | activating PPARα [2] | activating PPARγ [3] | Compound | other results
0.001 | – | – | Cc1nc(-c2ccc(C(F)(F)F)cc2)sc1C(=O)NCc1ccc(OC(C)(C)C(=O)O)cc1 [GW590375, reference compound] | –
– | not effective | highly effective | CCCc1cc(C(=O)c2ccc(F)cc2)ccc1OCCCOc1ccc2c(cnn2C(OCC)C(=O)OC)c1 (stereo not drawn) [KV-157, methyl 2-ethoxy-2-(5-(3-(4-(4-fluorobenzoyl)-2 propylphenoxy)propoxy)-1H-indazol-1-yl)acetate] | –
– | not effective | highly effective | CCCc1cc(C(=O)c2ccc(-c3ccccc3)cc2)ccc1OCCCOc1ccc2c(cnn2C(OCC)C(=O)OCC)c1 (stereo not drawn) [KV-165, ethyl 2-(5-(3-(4-([1,1′-biphenyl]-4-carbonyl)-2-propylphenoxy)propoxy)-1H-indazol-1-yl)-2-ethoxyacetate] | –
– | not effective | highly effective | CCCc1cc(C(=O)c2ccc(-c3ccccc3)cc2)ccc1OCCCOc1ccc2c(cnn2C(OCC)C(=O)O)c1 (stereo not drawn) [KV-180, 2-(5-(3-(4-([1.1′-biphenyl]-4-carbonyl)-2-propylphenoxy)propoxy)-1H-indazol-1-yl)-2-ethoxyacetic acid] | –
– | not effective | – | CCCc1cc(C(=O)c2ccc(F)cc2)ccc1OCCOc1ccc2c(cnn2C(OCC)C(=O)O)c1 (stereo not drawn) [KV-192, 2-ethoxy-2-(5-(2-(4-(4-fluorobenzoyl)-2-propylphenoxy)ethoxy)-1H-indazol-1-yl)acetic acid] | concentration at which PPARγ was activated [3]: 10 µM
5 | – | – | CCCc1cc(C(=O)c2ccc(-c3ccccc3)cc2)ccc1OCCCOc1ccc2c(cnn2CC(=O)OC)c1 [MP-153, methyl 2-(5-(3-(4-([1,1′-biphenyl]-4-carbonyl)-2-propylphenoxy)propoxy)-1H-indazol-1-yl)acetate] | production of IL-6 ([4]; compound at 2.5 μM): significantly inhibited; production of IL-6 ([4]; compound at 25 μM): significantly inhibited
1 | – | – | CCCc1cc(C(=O)c2ccc(F)cc2)ccc1OCCCOc1ccc2c(cnn2CC(=O)O)c1 [MP-154, 2-(5-(3-(4-(4-fluorobenzoyl)-2-propylphenoxy)propoxy)-1H-indazol-1-yl)acetic acid] | PPARγ transactivation: concentration at which (or starting at which) active ([3]; FIG. 3): 1,000 nM; production of IL-6 ([4]; compound at 2.5 μM): no anti-inflammatory effect; production of IL-6 ([4]; compound at 25 μM): significantly inhibited

The remaining lines, values behind:

Compound | PPARα transactivation: concentration at which (or starting at which) active [2] [µM] | activating PPARα [2] | activating PPARγ [3] | other results
CCC(=O)O[C@]1(C(=O)CCl)[C@@H](C)C[C@H]2[C@@H]3CCC4=CC(=O)C=C[C@]4(C)[C@@]3(F)[C@@H](O)C[C@@]21C [CP, clobetasol propionate, reference compound] | – | – | – | reducing the PASI score ([1]; 0.05% w/w cream, once daily day 10 to day 16, FIG. 11): effective
CCCc1cc(C(=O)c2ccc(-c3ccccc3)cc2)ccc1OCCOc1ccc2c(cnn2C(OCC)C(=O)O)c1 (stereo not drawn) [KV 196, 2-(5-(2-(4-([1,1′-biphenyl]-4-carbonyl)-2-propylphenoxy)ethoxy)-1H-indazol-1-yl)-2-ethoxyacetic acid] | – | not effective | highly effective | –
CCCc1cc(C(=O)c2ccc(F)cc2)ccc1OCCOc1ccc2c(cnn2C(OCC)C(=O)OCC)c1 (stereo not drawn) [KV-163A, ethyl 2-ethoxy-2-(5-(2-(4-(4-fluorobenzoyl)-2-propylphenoxy)ethoxy)-1H-indazol-1-yl)acetate] | – | not effective | highly effective | –
CCCc1cc(C(=O)c2ccc(-c3ccccc3)cc2)ccc1OCCOc1ccc2c(cnn2C(OCC)C(=O)OCC)c1 (stereo not drawn) [KV-194A, Ethyl 2-(5-(2-(4-([1,1,′-biphenyl]-4-carbonyl)-2-propylphenoxy)ethoxy)-1H-indazol-1-yl)-2-ethoxyacetate] | – | not effective | highly effective | –
CCCc1cc(C(=O)c2ccc(-c3ccccc3)cc2)ccc1OCCCOc1ccc2c(cnn2CC(=O)O)c1 [MP-151, 2-(5-(3-(4-([1,1′-biphenyl]-4-carbonyl)-2-propylphenoxy)propoxy)-1H-indazol-1-yl)acetic acid] | 5 | – | – | production of IL-6 ([4]; compound at 2.5 μM): significantly inhibited; production of IL-6 ([4]; compound at 25 μM): significantly inhibited; reduction of IL-8 production compared with rosiglitazone and fenofibrate ([5]; 25 μM): more active; production of IL-6 ([5]; compound at 25 uM): reduced; tolerability in mice ([1]; topical, seven-day consecutive treatment, even at 10% creams): well tolerated; visual damage on the skin ([1]; topical, seven-day consecutive treatment, up to 10% creams): No visual damage

Reference: patent US20220378744A1, “COMPOUNDS FOR TREATING PROLIFERATOR-ACTIVATED RECEPTORS (PPAR) MEDIATED DISEASES OR CONDITIONS” (MEDIPURE PHARMACEUTICALS INC., priority 2021, published 2022)
